pIC50: −log10 of the molar value. Like-named read-outs stand apart in the source and are kept apart here.
What was measured:
M/FASN cells = assay: MTT survival assay, M/FASN cells; assay type: cell-based, human
Protocol: FIG. 5. PARP-1 mediates FASN-associated DNA repair and genotoxic treatment resistance. A-B, Effect of FASN on PARP-1 expression as determined by Western blot (A) and real-time RT-PCR (B) in stable FASN-over-expressing and -knockdown cells. C, Effect of FASN on IR-induced histone-H3 PARylation. Cells were pre-treated without or with 0.5 μM olaparib followed by treatment with or without IR and harvested at different times following IR for lysate preparation, immunoprecipitation of histone-H3 in the presence of 100 μM PARG inhibitor, gallotannin, and Western blot analyses of PARylated and total histone H3. D, Effect of PARP-1 knockdown on FASN-induced NHEJ up-regulation. FASN-over-expressing (P/FASN) and the control (P/Vec) cells were transiently transected with PARP-1 or scrambled control siRNA followed by Western blot analysis of PARP-1 (left panel) and NHEJ activity assay (right panel) (n=3, *p<0.05; **p<0.01). E, Effect of PARP-1 inhibition on survival. M/FASN cells were treated with 1 mM 3-ABA, 0.5 μM olaparib, or their vehicle control for 48 hours followed by MTT assay. F, Effect of PARP-1 inhibition on doxorubicin resistance. M/FASN cells were pre-treated for 6 hours by 1 mM 3-ABA, 0.5 μM olaparib, or transfected with control or PARP-1 siRNA followed by tested doxorubicin resistance using MTT survival assay. (n=3-4, *p<0.05, **p<0.01).
To determine if FASN enhancement of PARP-1 likely mediates FASN function in cellular resistance to DNA damages, a survival assay of […] cells following doxorubicin treatment in the absence or presence of PARP-1 inhibitors, 3-ABA (3-aminobenzamide) or olaparib was carried out. Now referring to FIG. 5E, either 1 mM 3-ABA or 0.5 μM olaparib alone had no effect on M/FASN cell survival.
MTT survival assay was performed as previously described (see e.g., Yang Y, Chen Q, & Zhang J T (2002) Structural and functional consequences of mutating cysteine residues in the amino terminus of human multidrug resistance-associated protein 1. J. Biol. Chem. 277(46):44268-44277). Briefly, cells in 96-well plate were cultured for 24 hours and treated with various concentrations of doxorubicin, bleomycin, cisplatin or H2O2 continuously for 3 days followed by addition of thiazolyl blue tetrazolium bromide (MTT) to a final concentration of 0.5 mg/mL and incubation at 37° C. for 4 hours. Medium was then removed and formazan was solubilized in dimethyl sulfoxide and the OD570 was measured by a Synergy H1 hybrid reader (BioTek, Winooski, Vt.). IC50's were obtained from the fitted curves generated by GraphPad Prism 5.0 program (GraphPad Software, Inc.). Relative resistance factor (RRF) is calculated using the formula RRF=IC50 (test)/IC50 (control) with control normalized as 1. […]

breast cancer cell lines = assay: Survival of breast cancer cell lines, methylene blue staining assay (FIG. 24); assay type: cell-based, human; conditions: for activity in suppressing breast cancer cell survival, compared with lansoprazole: lansoprazole metabolites, MCF7, MDA-MB-231, MDA-MB-468 cells; for performance against breast cancer cell lines, compared with lansoprazole: non-FDA-approved PPIs, different breast cancer cell lines
From the text: (§1) FIG. 24. […] Actin was used as a loading control. D. effect of non-approved PPIs on the survival of breast cancer cell lines.

PARP1 and γ-H2AX = assay: Western blot of PARP1 and γ-H2AX (FIG. 24C); assay type: cell-based; conditions: dose-dependent
Protocol: as §1
Cells were harvest and then lysed in TNN buffer with 1 mM DTT, 1 mM PMSF and 0.1% SDS for 30 min at 4° C. with occasional agitation. The cells were sonicated briefly and total proteins were harvested after centrifugation of the lysate at 16,000 g for 15 minutes at to remove cell debris. The protein concentration of cell lysates was determined using a Bio-Rad protein assay kit. Total cell lysates were then separated by SDS-PAGE, transferred to a polyvinylidene fluoride membrane, and probed using antibodies against fatty acid synthase (610963, BD biosciences), PARP-1 (46D11, CST), γ-H2AX (05-636, Millipore), and (3-Actin (A2228, Sigma). The blot was then probed with horseradish peroxidase-conjugated secondary antibodies (Sigma) and signals were captured on X-ray films following developing with Amersham ECL Western Blotting Detection Reagent (RPN2106, GE).

breast cancer patients = assay: Retrospective survival analysis of electronic medical records of breast cancer patients; assay type: in vivo, human
Protocol: FIG. 16. Retrospective survival analysis of breast cancer patients with or without use of proton pump inhibitors (PPIs). De-identified electronic medical records of 6,752 breast cancer patients were retrieved from the database of Indiana Network for Patient Care (INPC) and subjected to Kaplan-Meier survival analysis in association with PPI usage in all patients (A) or in triple negative breast cancer patient subgroup (B). The p-value and hazard ratio (HR) were calculated from Cox proportional hazard models, which were adjusted for age, tumor stage, and time of first diagnosis.
Because PPIs are widely used for treatment of a variety of acid-related digestive disorders, many cancer patients may use PPIs without the knowledge that the combination of PPIs with their chemotherapy may have helped them. To this end, a retrospective association analysis was conducted using de-identified electronic medical records (EMR) of 6,752 breast cancer patients from Indiana Network for Patient Care (INPC). The average age at diagnosis is 58.9 years (range 19-102) and average age at death or last visit is 61.5 (range 21-104). Of this cohort, 534 patients took one or more PPIs after diagnosis as recorded in the EMR. There are 488 triple negative breast cancer (TNBC) patients, among them 35 used PPIs. Using the Cox proportional hazard regression model, the patient overall survival was analyzed against PPI usage. […] The protective effect of PPIs on patient survival was adjusted for age, tumor stage, and time of first diagnosis.
The patient database contains three domains of electronic medical records (EMR) of 6,752 de-identified breast cancer patients from Indiana Network for Patient Care (INPC). The first domain contains patient characteristics as shown in Supplemental Table 51. The second domain contains medical test results including body weight, blood tests, and office visit information. The third domain contains prescription information for each patient. The use of this database has been approved by IRB at Indiana University for this study.
The first task is to remove null and duplicated values and to resolve contradicting records. For patients that have contradicting records, different rules for different conflicts were followed. For conflicts on the first visit or diagnosis time, the earlier record at younger age were used as the first diagnosis and considered the later one as system update. For all other information including diagnosis information such as cancer subtype, the latest record was used as it is thought to be more accurate.
Next, the plain text information from the first domain of the database including but not limited to ER, PR, and HER2 test results, treatment plans, and therapy types were digitized. The record that is not clear was marked as unknown. For example, the HER2 status with a 2+ score, a borderline score, from IHC staining was usually confirmed with FISH test. Patients with a 2+ score but without a FISH test result were considered unknown in this study.
Further, the days of patient survival from data in the first domain were validated using prescription history of the same patient in the third domain of the database. When there is a conflict, the last day of office visit or prescription refill, whichever is later, was recorded as the last day of visit or death. Moreover, patients who took PPIs prior to their diagnosis of breast cancer but stopped taking them after diagnosis were considered non-PPI users in this study.

MCF7 cells = assay: Colony formation survival assay, MCF7 cells; assay type: cell-based, human; conditions: Homo sapiens
Protocol: FIG. 15. […] B. Combination index. Combination index (CI) was derived using the data shown in A and the formula: […]
For each potency ratio, combination index of three effective concentrations at IC30, IC50, and IC70 were calculated for synergistic effects using Prism 7.0.
Cells were then harvested and re-plated in 6-well plates at a density of 200 cells/well followed by IR treatment at different doses and colony formation assay or collection of cells for Western blot analysis. Concentration-response curves and IC50 values were calculated using Prism 7.0 (GraphPad, La Jolla, USA).

[1] = pairwise versus Lansoprazole users, all patients
[2] = pairwise versus Omeprazole users, all patients
[3] = pairwise versus Pantoprazole users, all patients
[4] = single-PPI users versus No PPI, all breast cancer patients
[5] = versus Lansoprazole, AA patients
[6] = versus Lansoprazole, CA patients
[7] = versus No PPI, African American (AA) patients
[8] = versus No PPI, Caucasian (CA) patients
[9] = versus Pantoprazole, CA patients

## NC(=O)c1cccc(N)c1 [3-ABA, 3-aminobenzamide]
M/FASN cells; 1 mM 3-ABA or 0.5 μM olaparib alone, 48 hours
  effect on M/FASN cell survival: no effect
M/FASN cells; pre-treated for 6 hours by 1 mM 3-ABA or 0.5 μM olaparib
  doxorubicin resistance level of M/FASN cells: significantly reduced

## Cc1c(OCC(F)(F)F)ccnc1CSc1nc2cc(O)ccc2[nH]1 [5-hydroxy lansoprazole sulfide]
Breast cancer cell lines; triple negative breast cancer cell lines
  suppression of triple negative breast cancer cell survival, compared with lansoprazole: significantly more effective than lansoprazole
PARP1 and γ-H2AX
  PARP1 expression: inhibited PARP1 expression
  production of γ-H2AX: induced production of γ-H2AX in a dose-dependent manner

## Cc1c(OCC(F)(F)F)ccnc1C[S+]([O-])c1nc2ccc(O)cc2[nH]1 (stereo not shown) [5-hydroxy lansoprazole]
Breast cancer cell lines
  activity in suppressing breast cancer cell survival, compared with lansoprazole: lost their activity

## COc1ccc2nc([S@@+]([O-])Cc3ncc(C)c(OC)c3C)[nH]c2c1 [Esomeprazole, esomeprazole]
Breast cancer patients; [1]
  HR (CoxPH ratio), overall survival: 2.57
Breast cancer patients; [2]
  HR (CoxPH ratio), overall survival: 1.6
Breast cancer patients; [3]
  HR (CoxPH ratio), overall survival: 1.44
Breast cancer patients; pairwise versus Rabeprazole users, all patients
  HR (CoxPH ratio), overall survival: 0.92
Breast cancer patients; [4]
  HR (CoxPH ratio), overall survival: 0.44
Breast cancer patients; [5]
  HR, overall survival: 7.79*10^7
Breast cancer patients; [6]
  HR, overall survival: 1.74
Breast cancer patients; [7]
  HR, overall survival: 0.49
Breast cancer patients; [8]
  HR, overall survival: 0.35
Breast cancer patients; versus Omeprazole, AA patients
  HR, overall survival: 1.47
Breast cancer patients; versus Pantoprazole, AA patients
  HR, overall survival: 0.84
Breast cancer patients; [9]
  HR, overall survival: 2.08
Breast cancer patients; versus Rabeprazole, CA patients
  HR, overall survival: 0.66

## Cc1c(OCC(F)(F)F)ccnc1CSc1nc2ccccc2[nH]1 [lansoprazole sulfide]
Breast cancer cell lines
  activity in suppressing breast cancer cell survival, compared with lansoprazole: lost their activity

## Cc1c(OCC(F)(F)F)ccnc1CS(=O)(=O)c1nc2ccccc2[nH]1 [lansoprazole sulfone]
Breast cancer cell lines
  activity in suppressing breast cancer cell survival, compared with lansoprazole: lost their activity

## COc1ccc2[nH]c([S+]([O-])Cc3ncc(C)c(OC)c3C)nc2c1 (stereo not shown) [omeprazole]
MCF7 cells; MCF7, read-out: IC50, cell survival, single agent, MCF7 cells, colony formation
  pIC50: 5.51
MCF7 cells; MCF7, read-out: IC50 of omeprazole in the presence of olaparib, in the presence of 0.1 μM olaparib, MCF-7 cells
  pIC50: 6.00
MCF7 cells; MCF7, read-out: IC50 of omeprazole in the presence of olaparib, in the presence of 0.3 μM olaparib, MCF-7 cells
  pIC50: 6.40
Breast cancer patients; [4]
  HR (CoxPH ratio), overall survival: 0.28
Breast cancer patients; [7]
  HR, overall survival: 0.33
Breast cancer patients; [8]
  HR, overall survival: 0.27

## COc1ccnc(C[S+]([O-])c2nc3ccc(OC(F)F)cc3[nH]2)c1OC (stereo not shown) [pantoprazole]
Breast cancer patients; [1]
  HR (CoxPH ratio), overall survival: 1.43
Breast cancer patients; [2]
  HR (CoxPH ratio), overall survival: 1.11
Breast cancer patients; [4]
  HR (CoxPH ratio), overall survival: 0.32
Breast cancer patients; [5]
  HR, overall survival: 9.89*10^8
Breast cancer patients; [6]
  HR, overall survival: 0.59
Breast cancer patients; [7]
  HR, overall survival: 0.59
Breast cancer patients; [8]
  HR, overall survival: 0.18
Breast cancer patients; versus Omeprazole, AA patients
  HR, overall survival: 1.85
Breast cancer patients; versus Omeprazole, CA patients
  HR, overall survival: 0.66

## COCCCOc1ccnc(C[S+]([O-])c2nc3ccccc3[nH]2)c1C (stereo not shown) [rabeprazole]
Breast cancer patients; [1]
  HR (CoxPH ratio), overall survival: 2.13
Breast cancer patients; [2]
  HR (CoxPH ratio), overall survival: 1.50
Breast cancer patients; [3]
  HR (CoxPH ratio), overall survival: 1.43
Breast cancer patients; [4]
  HR (CoxPH ratio), overall survival: 0.47
Breast cancer patients; [6]
  HR, overall survival: 1.99
Breast cancer patients; [8]
  HR, overall survival: 0.5031
Breast cancer patients; versus Omeprazole, CA patients
  HR, overall survival: 1.77
Breast cancer patients; [9]
  HR, overall survival: 2.57

## COc1ccc2[nH]c([S+]([O-])Cc3ncc(C)c(OC)c3C)nc2n1 (stereo not shown) [tenatoprazole]
Breast cancer cell lines
  performance against breast cancer cell lines, compared with lansoprazole: performed better than lansoprazole only against some cell lines

## anaprazole
Breast cancer cell lines
  performance against breast cancer cell lines, compared with lansoprazole: performed better than lansoprazole only against some cell lines
